{
  "source": "ChEMBL document CHEMBL5335827",
  "about": "“Divergent Biosynthesis of Bridged Polycyclic Sesquiterpenoids by a Minimal Fungal Biosynthetic Gene Cluster” (J Nat Prod, 2024)",
  "assay_type_in_all_cases": "functional, cell-based",
  "key": {"LoVo": {"tested_on": "LoVo", "assay": "Cytotoxicity against human LoVo cells at 20 uM by CCK8 assay"}, "HepG2": {"tested_on": "HepG2", "assay": "Cytotoxicity against human HepG2 cells at 20 uM by CCK8 assay"}, "RAW264.7": {"tested_on": "RAW264.7", "assay": "Anti-inflammatory activity against mouse RAW264.7 cells assessed as inhibition of LPS-induced NO release by Griess assay"}},
  "note": "The source made the active and inactive calls. The calls are words filed in the database; no cut-off is given here.",
  "data": [
    {"smiles": "C=C1[C@@H]2OC[C@H]3[C@@H]([C@H]2O)[C@@H](C(C)C)CC[C@@]13C", "values": [
      {"measurement": "Activity", "setting": "LoVo", "result": "inactive"},
      {"measurement": "Activity", "setting": "HepG2", "result": "inactive"}
    ]},
    {"smiles": "CC(C)[C@H]1CC[C@]2(C)[C@H]3CO[C@]2(CO)C=C[C@@H]13", "values": [
      {"measurement": "Activity", "setting": "LoVo", "result": "inactive"},
      {"measurement": "Activity", "setting": "HepG2", "result": "inactive"}
    ]},
    {"smiles": "C=C1C2C3[C@@H](C[C@@H]2O)[C@]1(C)[C@H](O)CCC3(C)C", "values": [
      {"measurement": "Activity", "setting": "LoVo", "result": "inactive"},
      {"measurement": "Activity", "setting": "HepG2", "result": "inactive"}
    ]},
    {"smiles": "CC1(C)CCC[C@]2(C)C(CO)=CC1[C@H]2CCO", "values": [
      {"measurement": "Activity", "setting": "LoVo", "result": "inactive"},
      {"measurement": "Activity", "setting": "HepG2", "result": "inactive"}
    ]},
    {"smiles": "C=C1[C@H]([C@@H]2C[C@H](O)C(=O)O2)[C@H]2[C@@H](C(C)C)CC[C@]1(C)[C@H]2CO", "values": [
      {"measurement": "Activity", "setting": "LoVo", "result": "inactive"},
      {"measurement": "Activity", "setting": "HepG2", "result": "inactive"}
    ]},
    {"smiles": "C=C1C2C3[C@@H](C[C@@H]2O)[C@]1(C)CCC[C@@]3(C)CO", "values": [
      {"measurement": "Activity", "setting": "LoVo", "result": "inactive"},
      {"measurement": "Activity", "setting": "HepG2", "result": "inactive"}
    ]},
    {"smiles": "C=C1C2C3[C@@H](C[C@@H]2O)[C@]1(C)C(=O)CCC3(C)C", "values": [
      {"measurement": "Activity", "setting": "LoVo", "result": "inactive"},
      {"measurement": "Activity", "setting": "HepG2", "result": "inactive"}
    ]},
    {"smiles": "C=C1C2C(=O)C[C@@H]3C2C(C)(C)CC[C@H](O)[C@]13C", "values": [
      {"measurement": "Activity", "setting": "LoVo", "result": "inactive"},
      {"measurement": "Activity", "setting": "HepG2", "result": "inactive"}
    ]},
    {"smiles": "CC(=O)/C=C/[C@H]1[C@H]2C(C=O)=C(C)[C@]1(C)CC[C@@H]2C(C)C", "values": [
      {"measurement": "Activity", "setting": "LoVo", "result": "inactive"},
      {"measurement": "Activity", "setting": "HepG2", "result": "inactive"},
      {"measurement": "IC50", "setting": "RAW264.7", "result": 3.9, "unit": "µM"}
    ]},
    {"smiles": "C=C1C2C3[C@@H](C[C@@H]2O)[C@]1(C)CC[C@H](O)C3(C)C", "values": [
      {"measurement": "Activity", "setting": "LoVo", "result": "inactive"},
      {"measurement": "Activity", "setting": "HepG2", "result": "inactive"}
    ]},
    {"smiles": "C=C1C2C(=O)C[C@@H]3C2C(C)(C)CCC[C@]13CO", "values": [
      {"measurement": "Activity", "setting": "LoVo", "result": "inactive"},
      {"measurement": "Activity", "setting": "HepG2", "result": "inactive"}
    ]},
    {"smiles": "CC(C)[C@H]1CC[C@]2(CO)C(C)[C@@H]3C(O)C(O)[C@H]2C13", "note": "(mixture of isomers)", "values": [
      {"measurement": "Activity", "setting": "LoVo", "result": "inactive"},
      {"measurement": "Activity", "setting": "HepG2", "result": "inactive"}
    ]},
    {"smiles": "C=C1[C@H](CO)C2[C@@H]([C@H](C)CO)CC[C@]1(C)[C@H]2CO", "values": [
      {"measurement": "Activity", "setting": "LoVo", "result": "inactive"},
      {"measurement": "Activity", "setting": "HepG2", "result": "inactive"}
    ]},
    {"smiles": "C=C1[C@@H]2C(O)C(O)[C@H]3[C@@H]2[C@@H](C(C)C)CC[C@@]13CO", "note": "(stereo partly specified)", "values": [
      {"measurement": "Activity", "setting": "LoVo", "result": "inactive"},
      {"measurement": "Activity", "setting": "HepG2", "result": "inactive"}
    ]},
    {"smiles": "C=C1CC2[C@@H](C(C)C)CC[C@]1(C)[C@H]2C(O)CO", "note": "(stereo partly specified)", "values": [
      {"measurement": "Activity", "setting": "LoVo", "result": "inactive"},
      {"measurement": "Activity", "setting": "HepG2", "result": "inactive"}
    ]}
  ]
}
